# Source: US12104201B2, “Engineered gyri-like mutein aptamers, and related methods” (CROSSLIFE TECHNOLOGIES INC., priority 2019, dated 2024)
# Changes are numbered by the printed parent chain. Names and notes keep the numbering of the source.
# T1: LIN2189 WT (L. innocua Gyrl-like protein, wild type, SEQ ID NO:6) (Listeria innocua, UniProt Q929T5)
# T1 construct: recombinant, purified
# T1 sequence (Q929T5 with tags, fused parts or gaps): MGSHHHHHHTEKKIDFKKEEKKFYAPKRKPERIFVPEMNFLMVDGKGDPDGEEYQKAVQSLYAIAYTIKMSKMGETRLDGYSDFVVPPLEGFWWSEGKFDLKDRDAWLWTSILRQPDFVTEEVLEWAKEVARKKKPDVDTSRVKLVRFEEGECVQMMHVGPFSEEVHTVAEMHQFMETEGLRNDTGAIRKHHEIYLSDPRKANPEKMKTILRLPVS
# T2: C. tepidium CTR107 variant Y106W (SEQ ID NO:20) (Chlorobaculum tepidum, UniProt Q8KFZ1, Y106W)
# T2 sequence (Q8KFZ1 with tags, fused parts or gaps Y106W): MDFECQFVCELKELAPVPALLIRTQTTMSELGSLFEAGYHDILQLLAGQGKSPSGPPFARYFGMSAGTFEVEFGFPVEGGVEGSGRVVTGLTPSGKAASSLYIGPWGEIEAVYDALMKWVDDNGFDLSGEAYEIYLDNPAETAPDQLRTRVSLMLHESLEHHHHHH
# T3: C. tepidium CTR107 variant E133Q (SEQ ID NO:22) (Chlorobaculum tepidum, UniProt Q8KFZ1, E133Q)
# T3 sequence (Q8KFZ1 with tags, fused parts or gaps E133Q): T2 sequence (Q8KFZ1 with tags, fused parts or gaps Y106W) with W106Y, E133Q
# B1: CTR107 Y106W: CTR107 variant aptamer, SEQ ID NO:20 (protein, listed as Escherichia coli)
# chain: T2 sequence (Q8KFZ1 with tags, fused parts or gaps Y106W)
# Experiments:
# [1] = target: T4, SAV2435 WT (S. aureus Gyrl-like protein, wild type, SEQ ID NO:2) (Staphylococcus aureus, UniProt A0A0H3K0Y5); type: binding
# T4 construct: listing organism Escherichia coli is only the host
# [2] = target: T5, CTR107 WT (C. tepidium Gyrl-like protein, wild type, SEQ ID NO:4) (Chlorobaculum tepidum, UniProt Q8KFZ1); assay: biochemical; type: binding
# T5 construct: begins […]
# T5 sequence (Q8KFZ1 entry or part of it): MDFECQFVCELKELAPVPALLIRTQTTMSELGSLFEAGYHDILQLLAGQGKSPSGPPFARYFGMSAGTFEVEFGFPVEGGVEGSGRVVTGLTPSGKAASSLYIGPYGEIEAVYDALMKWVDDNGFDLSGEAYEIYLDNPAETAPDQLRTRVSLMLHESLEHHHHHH
# [3] = target: T1, LIN2189 WT (L. innocua Gyrl-like protein, wild type, SEQ ID NO:6); assay: Fluorescence binding assay (enhancement/quenching of dye fluorescence); settings: 1 μM FAM, saturating protein
# Experimental: (§1) Fluorescence Binding Assay
# CTR107 when added at 10 μM induced a 10-fold increase in DFHBI fluorescence (FIG. 6A).
# Malachite Green fluoresces in the far-red regions when stimulated by binding aptamers, therefore we monitored its fluorescence emission at 665-720 nm after exciting at 635 nm.
# Thioflavin T is a benzothiazole dye that has also been used in many fluorescence applications. […] The Corn aptamer is able to bind to two Thioflavin T molecules at a homodimer interface formed by G-quadruplexes. We tested whether Gyrl-like proteins could function as fluorescence enhancement aptamers of Thioflavin T. Thioflavin T has excitation and emission maxima of […], respectively. We probed the fluorescence enhancing properties of SAV2435, CTR107 and LIN2189 variants on Thioflavin T (FIG. 8). […] All other variants display either a small 4-6 fold increase or no increase in Thioflavin T fluorescence.
# [4] = target: C. tepidium CTR107 variant E36R (SEQ ID NO:18) (Chlorobaculum tepidum, UniProt Q8KFZ1, E36R); type: binding; settings: FAM
# Chain of C. tepidium CTR107 variant E36R (SEQ ID NO:18) (Q8KFZ1 entry or part of it E36R): as the sequence (Q8KFZ1 entry or part of it) above, with E36R counted along it
# [5] = target: T2, C. tepidium CTR107 variant Y106W (SEQ ID NO:20); assay: biochemical; type: binding
# [6] = target: T3, C. tepidium CTR107 variant E133Q (SEQ ID NO:22); type: binding
# [7] = target: T6, L. innocua LIN2189 variant E157A (SEQ ID NO:28) (Listeria innocua, UniProt Q929T5, E157A); type: binding; settings: FAM
# T6 construct: listing organism Escherichia coli is only the host
# T6 sequence (Q929T5 entry or part of it E157A): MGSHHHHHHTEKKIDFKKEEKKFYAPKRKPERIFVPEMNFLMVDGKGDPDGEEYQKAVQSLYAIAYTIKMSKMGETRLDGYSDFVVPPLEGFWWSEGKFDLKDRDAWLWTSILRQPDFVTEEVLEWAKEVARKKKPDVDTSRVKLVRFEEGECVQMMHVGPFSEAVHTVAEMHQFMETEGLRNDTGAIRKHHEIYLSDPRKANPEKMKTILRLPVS
# FAM antibody = assay: Fluorescence-binding assay, Kd by nonlinear regression fit to the Hill equation
# From the text: as §1
# [8] = target: C. tepidium CTR107 variant, highest affinity FAM-binding aptamer from phage display library (Chlorobaculum tepidum, UniProt Q8KFZ1); assay: as above
# [9] = target: C. tepidium CTR107 variant, weakest FAM-binding aptamer from phage display library (Chlorobaculum tepidum, UniProt Q8KFZ1); assay: as above
# [10] = target: S. aureus SAV2435 variant V105W (SEQ ID NO:10) (Staphylococcus aureus, UniProt A0A0H3K0Y5, V105W); type: binding; settings: 500 nM Acridine Orange
# [11] = target: S. aureus SAV2435 variant P106W (SEQ ID NO:12) (Staphylococcus aureus, UniProt A0A0H3K0Y5, P106W); type: binding; settings: 500 nM Acridine Orange
# [12] = target: S. aureus SAV2435 variant N27W (SEQ ID NO:8) (Staphylococcus aureus, UniProt A0A0H3K0Y5); type: binding; settings: Acridine Orange
# [13] = target: S. aureus SAV2435 variant Y137W (SEQ ID NO:16) (Staphylococcus aureus, UniProt A0A0H3K0Y5, V105W/Y137W); type: binding; settings: Acridine Orange
# [14] = target: S. aureus SAV2435 variant E135Q (SEQ ID NO:14) (Staphylococcus aureus, UniProt A0A0H3K0Y5, E135Q/V105W); type: binding; settings: 500 nM Acridine Orange
# [15] = test system: E. coli expressing SAV2435 WT; assay: In vivo drug-binding aptamer screening (ampicillin resistance); settings: E. coli growth, OD600, 24 hrs
# [16] = test system: E. coli expressing CTR107 WT; assay: as above; settings: E. coli growth, OD600, 24 hrs
# [17] = test system: E. coli expressing LIN2189 DUB; assay: as above; settings: E. coli growth, OD600, 24 hrs
# [18] = test system: bacterial growth; ampicillin pre-incubated with LIN2189 (LIN2189 DUB); assay: Ex vivo drug-metabolizing aptamer screening (bacterial growth in ampicillin pre-incubated with protein)
# [19] = UV fluorescence quenching of Daunorubicin; settings: 5 μM daunorubicin; saturating protein
molecule,measurement,setting,value
5(6)-Carboxyfluorescein [FAM],effect on fluorescence,"[1]; 1 μM FAM, saturating protein",no effect
same,decrease in fluorescence,"[2]; 1 μM FAM, saturating protein",6 fold
same,decrease in fluorescence,[3],2 fold
same,fluorescence quenching,[4],loss of quenching properties
same,fluorescence quenching,[5]; FAM,loss of quenching properties
same,fluorescence quenching,[6]; FAM,loss of quenching properties
same,changes in fluorescence quenching compared to LIN2189 WT,[7],no changes
same,Kd,FAM antibody,8 nM
same,affinity relative to FAM antibody,[8],11 fold
same,Kd,[9],3 nM
CN(C)c1ccc2cc3ccc(N(C)C)cc3nc2c1 [Acridine Orange],quenching effect on fluorescence,[1]; Acridine Orange,2-3 fold
same,increase in fluorescence intensity,[2]; 500 nM Acridine Orange,doubled
same,quenching effect on fluorescence,[5]; Acridine Orange,2-3 fold
same,increase in fluorescence intensity,[6]; 500 nM Acridine Orange,doubled
same,increase in fluorescence intensity,[10],doubled
same,increase in fluorescence intensity,[11],doubled
same,quenching effect on fluorescence,[12],2-3 fold
same,quenching effect on fluorescence,[13],2-3 fold
same,increase in fluorescence intensity,[14],doubled
CC1(C)S[C@@H]2[C@H](NC(=O)[C@H](N)c3ccccc3)C(=O)N2[C@H]1C(=O)O [Ampicillin],susceptibility to ampicillin,[15],susceptible
same,partial resistance up to ampicillin concentration,[16],up to 100 μg/ml
same,highest resistance at ampicillin concentration,[17],100 µg/mL
same,resistance up to ampicillin concentration,[18],up to 500 μg/ml
B1,UV fluorescence of Daunorubicin with protein,[19],complete shut off of fluorescence
